Legend:
Kunming mice = experiment: Acute toxicity test of mice, intravenous injection; conditions: single dose tail intravenous injection
Description: Drugs were medicated via intravenous injection at different concentration in same volume, which was 20 ml/kg.
40 healthy Kunming mice were selected and randomly divided into 4 groups. Drugs were injected via tail vein at one time and the doses were 300 mg/kg, 425 mg/kg, 600 mg/kg and 850 mg/kg, respectively. Mice were constantly observed for 4 hours after the injection. After that, observations were carried out once in the morning and once in the afternoon for 7 days continuously. Signs of intoxation and time of death were recorded.

[1] = test system: acute myocardial infarction; experiment: Acute myocardial infarction in anesthetized dogs, oral (intragastric) administration; type: in vivo; conditions: for weight of infarct myocardium: N-BT staining; for Weight of IM/Weight of LH: in % (unit assumed); for LDH: serum, 180 min; for ΔST: surface ECG, by row: r6 before, r7-r12 5,15,30,60,90,120 min after administration
Description: Drugs were administered intragastrically in equal volume at unequal concentration. […] After weighing, animals were anesthetized with 3% pentobarbital sodium iv at the dose of 30 mg/kg. Tracheal intubation was performed and anesthesia respirator (SC-M5, manufactured by Shanghai Medical Instrument Factory) was connected for mechanical ventilation (18 20 per min with tidal volume of 350 550 ml) after thoracotomy. Needle electrodes were punctured into four limbs and under chest skin for monitoring standard limb lead and V3 and ECG. Thoracotomy was performed at the third intercostal space of left sternal border and the fourth rib was removed for full exposure of heart. The pericardium was cut open to make a pericardium hammock. The coronary artery was dissociated from between the second and third branches of left anterior descending coronary artery, underneath which pass through silk threads for two-step ligation. On surface of heart were placed 30-point epicardial leads, to which four limbs were connected through needle-electrodes, which were in turn connected to Powerlab/8s (AD Instruments) with a multichannel switcher to record epicardial electrogram. Animal models of acute myocardial ischemia were prepared with the method of two-step ligation. […] NBT). While other part of myocardium was dyed to blue-black, the Infarct myocardium would not be colorated, which was then cut off and weighted. The results of experiment were shown in x±s and statistics were checked with t-test of non-matched pair. When p<0.05, it was judged that the differences were statistically significant.

[2] = test system: chronic myocardial ischemia; experiment: Chronic myocardial ischemia in rats, intragastric administration; type: in vivo, SD rats; conditions: TSG 20 mg/kg intragastric, 6 weeks
Description: (1) Operation and Coronary artery ligation of Animal: 60 male SD rats, divided into two groups: 15 in sham operation group and 45 in operation group, were immobilized on their backs by anesthesia of urethane ip at the dose of 100 mg/kg. Electrocardiograph (ECG-6851C, made by Shanghai Photoelectrical & Electronic Medical Apparatus Co., Ltd.) was used to record II lead electrocardiogram. Tracheal intubation was performed and connected into an artificial respirator and thoracotomy was performed at the fourth intercostal space of left sternal border after the skin sterilization. With exposure of the heart, the ligation was conducted at 3-4 mm of the root of left anterior descending coronary artery. ECG was monitored during the whole process and the graph showing significant elevation and depression of ST segment as well as the elevated T-wave amplitude was viewed as the indexes for the success of coronary artery ligation. After the ligation, thorax was closed and the air was drawn out. Regular feeding was continued after the operation, and the intramuscular injection of Penicillin was performed to prevent infection in 1 week after the operation. Thoracotomy was performed in sham operation group without coronary artery ligation.
(2) Groups and administration: 5 weeks later, there were 11 rats survived in sham operation group, and 24 rats in operation group. […] Starting from the sixth week, drugs were administered 6 days per week, and continued for 6 weeks, but withdrawn on Sundays. The volume of the drug administered was 5 ml/kg.
(1) Evaluation of therapeutic effect: Therapeutic effect was evaluated at the 12th week after the operation. 30 min after the final administration, rats were immobilized on their backs and tracheal intubation was performed. Arteria Femoralis was separated or insertion of a catheter to record artery blood pressure. A cardiac catheter was inversely guided into left ventricular from right common carotid artery. Both catheters were connected with pressure sensor, and then the pressure signals were input into an electrophysiolograph Powerlab system 8s (ML785/8S, AD Instruments, made in Australia) after being amplified with carriers. Needle electrodes were subcutaneously inserted into four limbs to monitor the standard two lead ECG. A computer (chart4.12 software, ML785/8S, AD Instruments, made in Australia) was used to monitor and store data. Thirty min after the operation, heart rate (HR), blood pressure (BPm), left ventricular systolic pressure (LVSP), left ventricular diastolic pressure (LVDP), the maximal rate of left intraventricular pressure changes (+dp/dtmax), left ventricular end-diastolic pressure (LVEDP), ECG were observed. One hour later, animals were executed, and their left ventriculars were taken out. The left hearts were cut into slices of 5 mm in thickness, which were cleaned with normal saline and put into 0.025% nitroblue tetrazolium (N-BT, made by Swiss Fluka Chemistry Company) at 37° C. for staining. Normal myocardium was dyed into dark blue, and the myocardium in infarction area was not dyed, remaining still light-yellow. The infarction area was isolated from normal myocardium under an anatomic microscopy and the both weighed, separatively. The percentage (%) of the weight of infarct area to the weight of the whole was regarded as the index for measurement of the area of myocardial infarction.
Test results was expressed in x±s. […]

3,4′,5-trihydroxy-stilbene-3-β-D-glucoside [TSG]
signs of intoxication (Kunming mice): body shaking, occasionally restlessness, twitch and other responses appeared
time of death after the drug injection (Kunming mice): 5 to 1440 min
weight of infarct myocardium ([1]; TSG 5 mg/kg oral): 5.98 ± 1.71 g
Weight of IM/Weight of LH ([1]; TSG 5 mg/kg oral): 10.8 ± 2.81
LDH ([1]; TSG 5 mg/kg oral): 159 ± 80.4 IU/L
ΔST ([1]; TSG 5 mg/kg oral, 5 min after administration): 0.70 ± 0.50 mV
ΔST ([1]; TSG 5 mg/kg oral, 15 min after administration): 0.71 ± 0.48 mV
ΔST ([1]; TSG 5 mg/kg oral, 30 min after administration): 0.73 ± 0.51 mV
ΔST ([1]; TSG 5 mg/kg oral, 60 min): 0.88 ± 0.54 mV
ΔST ([1]; TSG 5 mg/kg oral, 90 min after administration): 0.82 ± 0.49 mV
ΔST ([1]; TSG 5 mg/kg oral, 120 min after administration): 0.86 ± 0.52 mV
ΔST ([1]; TSG 5 mg/kg oral, Before administration): 0.66 ± 0.45 mV
weight of infarct myocardium ([1]; TSG 10 mg/kg oral): 3.17 ± 0.66 g
Weight of IM/Weight of LH ([1]; TSG 10 mg/kg oral): 6.61 ± 1.31
LDH ([1]; TSG 10 mg/kg oral): 140 IU/L
ΔST ([1]; TSG 10 mg/kg oral, 5 min after administration): 0.68 ± 0.51 mV
ΔST ([1]; TSG 10 mg/kg oral, 15 min after administration): 0.69 ± 0.52 mV
ΔST ([1]; TSG 10 mg/kg oral, 30 min after administration): 0.69 ± 0.45 mV
ΔST ([1]; TSG 10 mg/kg oral, 60 min): 0.70 ± 0.44 mV
ΔST ([1]; TSG 10 mg/kg oral, 90 min after administration): 0.75 ± 0.46 mV
ΔST ([1]; TSG 10 mg/kg oral, 120 min after administration): 0.81 ± 0.52 mV
ΔST ([1]; TSG 10 mg/kg oral, Before administration): 0.55 ± 0.40 mV
weight of infarct myocardium ([1]; TSG 20 mg/kg oral): 2.31 ± 0.70 g
Weight of IM/Weight of LH ([1]; TSG 20 mg/kg oral): 4.03 ± 0.61
LDH ([1]; TSG 20 mg/kg oral): 120 IU/L
+dp/dt max [2]: 1389 ± 142^Δ Kpa/s
BP [2]: 19.2 ± 1.8^Δ KPa
HR [2]: 354 ± 45^Δ p/min
LVEDP [2]: 0.82 ± 0.19^Δ KPa
LVSP [2]: 19.8 ± 2.1^Δ KPa
